Reference: ChEMBL document CHEMBL1201862, “PubChem BioAssay data set” (2004)
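Exposure lasted 48 hours, with cells grown in 96-well plates and compounds tested at five concentrations. GI50 is the concentration that inhibits growth by half.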 Calls of active or inactive are those of the source. No stated cut-off is given here; in the data, active = GI50 up to about 1.1 µM and inactive = higher.

Legend:
Assay in all cases: inhibition of tumour cell growth, NCI panel, 48 h
SK-OV-3 = system: SK-OV-3
Malme-3M = system: Malme-3M
MCF7 = system: MCF7
SF-539 = system: SF-539
SNB-19 = system: SNB-19
SF-268 = system: SF-268
786-0 = system: 786-0
CAKI-1 = system: CAKI-1
HCC 2998 = system: HCC 2998
U-251 = system: U-251
BT-549 = system: BT-549
SW-620 = system: SW-620
NCI-H460 = system: NCI-H460
SNB-75 = system: SNB-75
HL-60 = system: HL-60
T47D = system: T47D
OVCAR-3 = system: OVCAR-3
SF-295 = system: SF-295
SK-MEL-2 = system: SK-MEL-2
SN12C = system: SN12C
SK-MEL-5 = system: SK-MEL-5
PC-3 = system: PC-3
NCI-H23 = system: NCI-H23
A549 = system: A549
M14 = system: M14
MDA-MB-435 = system: MDA-MB-435
RPMI-8226 = system: RPMI-8226
OVCAR-5 = system: OVCAR-5
DU-145 = system: DU-145
SK-MEL-28 = system: SK-MEL-28
COLO 205 = system: COLO 205
UACC-257 = system: UACC-257
OVCAR-8 = system: OVCAR-8
HCT-116 = system: HCT-116
K562 = system: K562
NCI/ADR-RES = system: NCI/ADR-RES
UACC-62 = system: UACC-62
TK-10 = system: TK-10
MOLT-4 = system: MOLT-4
HOP-92 = system: HOP-92
CCRF-CEM = system: CCRF-CEM
NCI-H522 = system: NCI-H522
HT-29 = system: HT-29
MDA-MB-231 = system: MDA-MB-231
ACHN = system: ACHN
A498 = system: A498
KM12 = system: KM12
Hs-578T = system: Hs-578T
HCT-15 = system: HCT-15
LOX IMVI = system: LOX IMVI
NCI-H226 = system: NCI-H226
IGROV-1 = system: IGROV-1
MDA-N = system: MDA-N
EKVX = system: EKVX
UO-31 = system: UO-31
HOP-62 = system: HOP-62
OVCAR-4 = system: OVCAR-4
RXF 393 = system: RXF 393

CNC(=O)CN(C)C(=O)CCC(=O)N(C)C
GI50 (SK-OV-3): > 100 µM (inactive) | GI50 (Malme-3M): > 100 µM (inactive) | GI50 (MCF7): > 100 µM (inactive) | GI50 (SF-539): > 100 µM (inactive) | GI50 (SNB-19): > 100 µM (inactive) | GI50 (SF-268): > 100 µM (inactive) | GI50 (786-0): > 100 µM (inactive) | GI50 (CAKI-1): > 100 µM (inactive) | GI50 (HCC 2998): > 100 µM (inactive) | GI50 (U-251): > 100 µM (inactive) | GI50 (BT-549): > 100 µM (inactive) | GI50 (SW-620): > 100 µM (inactive) | GI50 (NCI-H460): > 100 µM (inactive) | GI50 (SNB-75): > 100 µM (inactive) | GI50 (HL-60): > 100 µM (inactive) | GI50 (T47D): > 100 µM (inactive) | GI50 (OVCAR-3): > 100 µM (inactive) | GI50 (SF-295): > 100 µM (inactive) | GI50 (SK-MEL-2): > 100 µM (inactive) | GI50 (SN12C): > 100 µM (inactive) | GI50 (SK-MEL-5): > 100 µM (inactive) | GI50 (PC-3): > 100 µM (inactive) | GI50 (NCI-H23): > 100 µM (inactive) | GI50 (A549): > 100 µM (inactive) | GI50 (M14): > 100 µM (inactive) | GI50 (MDA-MB-435): > 100 µM (inactive) | GI50 (RPMI-8226): > 100 µM (inactive) | GI50 (OVCAR-5): > 100 µM (inactive) | GI50 (DU-145): > 100 µM (inactive) | GI50 (SK-MEL-28): > 100 µM (inactive) | GI50 (COLO 205): > 100 µM (inactive) | GI50 (UACC-257): > 100 µM (inactive) | GI50 (OVCAR-8): > 100 µM (inactive) | GI50 (HCT-116): > 100 µM (inactive) | GI50 (K562): > 100 µM (inactive) | GI50 (NCI/ADR-RES): > 100 µM (inactive) | GI50 (UACC-62): > 100 µM (inactive) | GI50 (TK-10): > 100 µM (inactive) | GI50 (MOLT-4): > 100 µM (inactive) | GI50 (HOP-92): > 100 µM (inactive) | GI50 (CCRF-CEM): > 100 µM (inactive) | GI50 (NCI-H522): > 100 µM (inactive) | GI50 (HT-29): > 100 µM (inactive) | GI50 (MDA-MB-231): > 100 µM (inactive) | GI50 (ACHN): > 100 µM (inactive) | GI50 (A498): > 100 µM (inactive) | GI50 (KM12): > 100 µM (inactive) | GI50 (Hs-578T): > 100 µM (inactive) | GI50 (HCT-15): > 100 µM | GI50 (LOX IMVI): > 100 µM (inactive) | GI50 (NCI-H226): > 100 µM (inactive) | GI50 (IGROV-1): > 100 µM (inactive) | GI50 (MDA-N): > 100 µM (inactive) | GI50 (EKVX): > 100 µM (inactive) | GI50 (UO-31): > 100 µM (inactive) | GI50 (HOP-62): > 100 µM (inactive)

CC(=O)Nc1c(C)cc2c(nc3n2CCC3O)c1[N+](=O)[O-] (stereo not drawn)
GI50 (SK-OV-3): > 100 µM (inactive) | GI50 (Malme-3M): > 100 µM (inactive) | GI50 (MCF7): > 100 µM (inactive) | GI50 (OVCAR-4): > 100 µM (inactive) | GI50 (SF-539): > 100 µM (inactive) | GI50 (SNB-19): > 100 µM (inactive) | GI50 (SF-268): > 100 µM (inactive) | GI50 (786-0): > 100 µM (inactive) | GI50 (CAKI-1): > 100 µM (inactive) | GI50 (HCC 2998): > 100 µM (inactive) | GI50 (U-251): > 100 µM (inactive) | GI50 (BT-549): > 100 µM (inactive) | GI50 (SW-620): > 100 µM (inactive) | GI50 (NCI-H460): > 100 µM (inactive) | GI50 (SNB-75): > 100 µM (inactive) | GI50 (HL-60): > 100 µM (inactive) | GI50 (T47D): > 100 µM (inactive) | GI50 (OVCAR-3): > 100 µM (inactive) | GI50 (SF-295): > 100 µM (inactive) | GI50 (SK-MEL-2): > 100 µM (inactive) | GI50 (SN12C): > 100 µM (inactive) | GI50 (SK-MEL-5): > 100 µM (inactive) | GI50 (PC-3): > 100 µM (inactive) | GI50 (NCI-H23): > 100 µM (inactive) | GI50 (A549): > 100 µM (inactive) | GI50 (M14): > 100 µM (inactive) | GI50 (MDA-MB-435): > 100 µM (inactive) | GI50 (RPMI-8226): > 100 µM (inactive) | GI50 (OVCAR-5): > 100 µM (inactive) | GI50 (DU-145): > 100 µM (inactive) | GI50 (SK-MEL-28): > 100 µM (inactive) | GI50 (COLO 205): > 100 µM (inactive) | GI50 (UACC-257): > 100 µM (inactive) | GI50 (OVCAR-8): > 100 µM (inactive) | GI50 (HCT-116): > 100 µM (inactive) | GI50 (K562): > 100 µM (inactive) | GI50 (NCI/ADR-RES): > 100 µM (inactive) | GI50 (UACC-62): > 100 µM (inactive) | GI50 (MOLT-4): > 100 µM (inactive) | GI50 (HOP-92): > 100 µM (inactive) | GI50 (CCRF-CEM): > 100 µM (inactive) | GI50 (NCI-H522): > 100 µM (inactive) | GI50 (HT-29): > 100 µM (inactive) | GI50 (MDA-MB-231): > 100 µM (inactive) | GI50 (ACHN): > 100 µM (inactive) | GI50 (A498): > 100 µM (inactive) | GI50 (KM12): > 100 µM (inactive) | GI50 (Hs-578T): > 100 µM (inactive) | GI50 (HCT-15): > 100 µM | GI50 (LOX IMVI): > 100 µM (inactive) | GI50 (NCI-H226): > 100 µM (inactive) | GI50 (IGROV-1): > 100 µM (inactive) | GI50 (MDA-N): > 100 µM (inactive) | GI50 (EKVX): > 100 µM (inactive) | GI50 (UO-31): > 100 µM (inactive)

N#Cc1c(Cl)c2cc([N+](=O)[O-])ccc2n2c1nc1ccccc12
GI50 (SK-OV-3): 23.3 µM (inactive) | GI50 (Malme-3M): 6.85 µM (inactive) | GI50 (MCF7): 1.17 µM (inactive) | GI50 (OVCAR-4): 2.15 µM (inactive) | GI50 (SF-539): 2.15 µM (inactive) | GI50 (SNB-19): 13.6 µM (inactive) | GI50 (SF-268): 5.71 µM (inactive) | GI50 (786-0): 2.01 µM (inactive) | GI50 (CAKI-1): 2.14 µM (inactive) | GI50 (HCC 2998): 7.53 µM (inactive) | GI50 (U-251): 7.57 µM (inactive) | GI50 (BT-549): 19.5 µM (inactive) | GI50 (SW-620): 2.26 µM (inactive) | GI50 (NCI-H460): 14.6 µM (inactive) | GI50 (SNB-75): 8.81 µM (inactive) | GI50 (HL-60): 0.172 µM (active) | GI50 (T47D): 1.79 µM (inactive) | GI50 (OVCAR-3): 6.76 µM (inactive) | GI50 (SF-295): 26.8 µM (inactive) | GI50 (SK-MEL-2): 15.5 µM (inactive) | GI50 (SN12C): 4.44 µM (inactive) | GI50 (SK-MEL-5): 22.6 µM (inactive) | GI50 (PC-3): 5.46 µM (inactive) | GI50 (NCI-H23): 9.98 µM (inactive) | GI50 (A549): 35.8 µM (inactive) | GI50 (M14): 1.99 µM (inactive) | GI50 (MDA-MB-435): 2.35 µM (inactive) | GI50 (RPMI-8226): 3.94 µM (inactive) | GI50 (OVCAR-5): 4.05 µM (inactive) | GI50 (DU-145): 3.5 µM (inactive) | GI50 (SK-MEL-28): 6.87 µM (inactive) | GI50 (COLO 205): 2.21 µM (inactive) | GI50 (UACC-257): 20.6 µM (inactive) | GI50 (OVCAR-8): 3.21 µM (inactive) | GI50 (HCT-116): 3.17 µM (inactive) | GI50 (K562): 1.85 µM (inactive) | GI50 (NCI/ADR-RES): 5.07 µM (inactive) | GI50 (UACC-62): 12 µM (inactive) | GI50 (TK-10): 3.81 µM (inactive) | GI50 (MOLT-4): 0.8 µM (active) | GI50 (HOP-92): 2.77 µM (inactive) | GI50 (CCRF-CEM): 0.57 µM (active) | GI50 (NCI-H522): 2.54 µM (inactive) | GI50 (RXF 393): 2.38 µM (inactive) | GI50 (HT-29): 4.46 µM (inactive) | GI50 (MDA-MB-231): 0.492 µM (active) | GI50 (ACHN): 4.29 µM (inactive) | GI50 (A498): 25.6 µM (inactive) | GI50 (KM12): 9.91 µM (inactive) | GI50 (Hs-578T): 7.69 µM (inactive) | GI50 (HCT-15): 0.933 µM | GI50 (LOX IMVI): 1.87 µM (inactive) | GI50 (NCI-H226): 10.6 µM (inactive) | GI50 (MDA-N): 7.19 µM (inactive) | GI50 (EKVX): 15.8 µM (inactive) | GI50 (UO-31): 2.58 µM (inactive) | GI50 (HOP-62): 18.2 µM (inactive)
